Assay results reported in PubChem BioAssay AID248 (DTP/NCI, 2004).
Toxic doses and inconclusive results are not listed. No stated cut-off is given here; in the data, active means T/C of 150% or more; inactive means T/C below 125%.

Test system: L1210 leukemia ip in BDF1 mice, survival T/C
Assay: NCI In Vivo Anticancer Drug Screen. Data for tumor model L1210 Leukemia (intraperitoneal) in B6D2F1 (BDF1) mice
Details: endpoint: mean survival time, higher = longer survival
In short: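 Ratio derived from survival: compound-dosed mice over vehicle-dosed mice, all bearing a transplantable tumor.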

[1] = dose: 100.0 mg/kg/injection, schedule: Q04DX002 (ip), vehicle: Klucel (hydroxypropylcellulose) (HPC)
[2] = dose: 100.0 mg/kg/injection, schedule: Q04DX003 (ip), vehicle: Klucel (hydroxypropylcellulose) (HPC)
[3] = dose: 200.0 mg/kg/injection, schedule: Q04DX002 (ip), vehicle: Klucel (hydroxypropylcellulose) (HPC)
[4] = dose: 200.0 mg/kg/injection, schedule: Q04DX003 (ip), vehicle: Klucel (hydroxypropylcellulose) (HPC)
[5] = dose: 100.0 mg/kg/injection, schedule: Q04DX002 (ip), vehicle: saline with Tween-80
[6] = dose: 200.0 mg/kg/injection, schedule: Q04DX002 (ip), vehicle: saline with Tween-80
[7] = dose: 100.0 mg/kg/injection, schedule: Q01DX001 (ip), vehicle: Klucel (hydroxypropylcellulose) (HPC)
[8] = dose: 6.25 mg/kg/injection, schedule: Q01DX009 (ip), vehicle: saline with Tween-80
[9] = dose: 12.5 mg/kg/injection, schedule: Q01DX009 (ip), vehicle: saline with Tween-80
[10] = dose: 400.0 mg/kg/injection, schedule: Q04DX003 (ip), vehicle: Klucel (hydroxypropylcellulose) (HPC)
[11] = dose: 100.0 mg/kg/injection, schedule: Q04DX003 (ip), vehicle: saline with Tween-80
[12] = dose: 200.0 mg/kg/injection, schedule: Q04DX003 (ip), vehicle: saline with Tween-80
[13] = dose: 400.0 mg/kg/injection, schedule: Q04DX003 (ip), vehicle: saline with Tween-80
[14] = dose: 100.0 mg/kg/injection, schedule: Q01DX001 (ip), vehicle: saline
[15] = dose: 200.0 mg/kg/injection, schedule: Q01DX001 (ip), vehicle: saline
[16] = dose: 400.0 mg/kg/injection, schedule: Q01DX001 (ip), vehicle: saline
[17] = dose: 100.0 mg/kg/injection, schedule: Q01DX009 (ip), vehicle: saline with Tween-80
[18] = dose: 200.0 mg/kg/injection, schedule: Q01DX009 (ip), vehicle: saline with Tween-80

Measured: T/C

O=C(OCC1CC1)c1ccc(N=Nc2ccccc2)cc1
inactive: dose: 75.0 mg/kg/injection, schedule: Q04DX002 (ip), vehicle: Klucel (hydroxypropylcellulose) (HPC) 102 % of control | dose: 150.0 mg/kg/injection, schedule: Q04DX002 (ip), vehicle: Klucel (hydroxypropylcellulose) (HPC) 108 % of control | dose: 300.0 mg/kg/injection, schedule: Q04DX002 (ip), vehicle: Klucel (hydroxypropylcellulose) (HPC) 105 % of control

NC(N)=NC(N)=Nc1ccccc1Br
inactive: dose: 50.0 mg/kg/injection, schedule: Q01DX009 (ip), vehicle: Klucel (hydroxypropylcellulose) (HPC) 106 % of control | dose: 100.0 mg/kg/injection, schedule: Q01DX009 (ip), vehicle: Klucel (hydroxypropylcellulose) (HPC) 104 % of control | [1] 107 % of control | [2] 98 % of control | [3] 104 % of control | [4] 110 % of control

S=C1N/N=C/NN/C=N/N1
inactive: dose: 10.0 mg/kg/injection, schedule: Q01DX001 (ip), vehicle: saline 105 % of control | dose: 20.0 mg/kg/injection, schedule: Q01DX001 (ip), vehicle: saline 94 % of control

O=C(O)C(O)(c1ccccc1)C1CCCCC1 (centres undefined)
inactive: [5] 91 % of control | [6] 105 % of control | dose: 400.0 mg/kg/injection, schedule: Q04DX002 (ip), vehicle: saline with Tween-80 98 % of control

CCCCCCCCCCCCCCCCCC[N+]1(Cc2ccccc2)CCOCC1
inactive: [7] 110 % of control

O/N=C/Cc1ccccc1
inactive: dose: 100.0 mg/kg/injection, schedule: Q04DX002 (ip), vehicle: DMSO 103 % of control | dose: 200.0 mg/kg/injection, schedule: Q04DX002 (ip), vehicle: DMSO 123 % of control

CCCCC(CSC#N)SC#N (centres undefined)
inactive: dose: 3.13 mg/kg/injection, schedule: Q01DX009 (ip), vehicle: saline with Tween-80 94 % of control | [8] 94 % of control | [9] 94 % of control

Cc1ccc([NH-])cc1.Cc1ccc([NH-])cc1.[Cl][Pt+2][Cl]
inactive: [8] 101 % of control | [9] 95 % of control

CC(C)CC(=O)OCc1ccc2c(c1)OCO2
inactive: dose: 222.0 mg/kg/injection, schedule: Q01DX Z (ip), vehicle: saline 109 % of control | dose: 333.0 mg/kg/injection, schedule: Q01DX Z (ip), vehicle: saline 102 % of control | dose: 500.0 mg/kg/injection, schedule: Q01DX Z (ip), vehicle: saline 108 % of control

Clc1ccnc2[nH]ncc12
inactive: dose: 60.0 mg/kg/injection, schedule: Q01DX001 (ip), vehicle: other 97 % of control | dose: 120.0 mg/kg/injection, schedule: Q01DX001 (ip), vehicle: other 105 % of control

O=C(O)c1cccc(NC(=O)C(F)(F)F)c1
inactive: [7] 94 % of control | [2] 102 % of control | dose: 200.0 mg/kg/injection, schedule: Q01DX001 (ip), vehicle: Klucel (hydroxypropylcellulose) (HPC) 96 % of control | [4] 108 % of control | dose: 400.0 mg/kg/injection, schedule: Q01DX001 (ip), vehicle: Klucel (hydroxypropylcellulose) (HPC) 100 % of control | [10] 103 % of control

N/C(=N\N=C\c1cccc2ccccc12)N/N=C/c1cccc2ccccc12
inactive: dose: 15.0 mg/kg/injection, schedule: Q01DX Z (ip), vehicle: methylcellulose (MC) 101 % of control | dose: 30.0 mg/kg/injection, schedule: Q01DX Z (ip), vehicle: methylcellulose (MC) 89 % of control | dose: 60.0 mg/kg/injection, schedule: Q01DX Z (ip), vehicle: methylcellulose (MC) 102 % of control | dose: 60.0 mg/kg/injection, schedule: Q01DX Z (oral), vehicle: methylcellulose (MC) 87 % of control | dose: 120.0 mg/kg/injection, schedule: Q01DX Z (ip), vehicle: methylcellulose (MC) 97 % of control | dose: 120.0 mg/kg/injection, schedule: Q01DX Z (oral), vehicle: methylcellulose (MC) 110 % of control | dose: 180.0 mg/kg/injection, schedule: Q01DX Z (oral), vehicle: methylcellulose (MC) 101 % of control | dose: 240.0 mg/kg/injection, schedule: Q01DX Z (ip), vehicle: methylcellulose (MC) 97 % of control | dose: 240.0 mg/kg/injection, schedule: Q01DX Z (oral), vehicle: methylcellulose (MC) 102 % of control | dose: 360.0 mg/kg/injection, schedule: Q01DX Z (ip), vehicle: methylcellulose (MC) 91 % of control | dose: 360.0 mg/kg/injection, schedule: Q01DX Z (oral), vehicle: methylcellulose (MC) 96 % of control | dose: 480.0 mg/kg/injection, schedule: Q01DX Z (oral), vehicle: methylcellulose (MC) 93 % of control | dose: 540.0 mg/kg/injection, schedule: Q01DX Z (oral), vehicle: methylcellulose (MC) 96 % of control

CCCCC1CCC2=C(CC(O)(CCCC)CC3=C1C(=O)OC3=O)C(=O)OC2=O (centres undefined)
inactive: [5] 106 % of control | [6] 95 % of control

OCC1OC(n2ccc3c2ncn2nnnc32)C(O)C1O (centres undefined)
inactive: dose: 12.5 mg/kg/injection, schedule: Q01DX009 (ip), vehicle: saline 91 % of control | dose: 12.5 mg/kg/injection, schedule: Q04DX003 (ip), vehicle: saline 102 % of control | dose: 25.0 mg/kg/injection, schedule: Q01DX009 (ip), vehicle: saline 102 % of control | dose: 25.0 mg/kg/injection, schedule: Q04DX003 (ip), vehicle: saline 107 % of control | dose: 50.0 mg/kg/injection, schedule: Q04DX003 (ip), vehicle: saline 105 % of control

Brc1n[nH]nc1Br
inactive: [11] 98 % of control | [12] 104 % of control | [13] 101 % of control

O=C1c2ccccc2C(=O)c2c(O)cccc21
inactive: [2] 101 % of control | [4] 89 % of control | [10] 105 % of control

CCOC(=O)CSC1=NCCN1
inactive: [14] 105 % of control | [15] 113 % of control | [16] 105 % of control

CCN=C(c1ccc(NC(=O)c2ccc(C(=O)Nc3ccc(C(=NCC)N(CC)C(=O)NCCCCl)cc3)cc2)cc1)N(CC)C(=O)NCCCCl
inactive: dose: 0.5 mg/kg/injection, schedule: Q01DX015 (ip), vehicle: methylcellulose (MC) 100 % of control | dose: 1.0 mg/kg/injection, schedule: Q01DX015 (ip), vehicle: methylcellulose (MC) 102 % of control | dose: 2.0 mg/kg/injection, schedule: Q01DX015 (ip), vehicle: methylcellulose (MC) 111 % of control

O=c1[nH]cnc2c(Cl)c(C(Cl)(Cl)Cl)nn12 (tested in a mixture with another compound)
inactive: [17] 97 % of control | [11] 104 % of control | [18] 92 % of control | [12] 98 % of control | dose: 400.0 mg/kg/injection, schedule: Q01DX009 (ip), vehicle: saline with Tween-80 97 % of control | [13] 97 % of control

Cc1nc2c(N)nn(C)c2nc1C
inactive: [17] 96 % of control | [18] 102 % of control

Cc1cc(NS(=O)(=O)c2ccc(N=Nc3c(N)nc(N)[nH]c3=O)cc2)nc(C)n1
inactive: [14] 97 % of control | [15] 89 % of control | [16] 92 % of control

O=c1oc2ccccc2cc1-c1ccc([N+](=O)[O-])cc1
inactive: [1] 100 % of control | [3] 89 % of control | dose: 400.0 mg/kg/injection, schedule: Q04DX002 (ip), vehicle: Klucel (hydroxypropylcellulose) (HPC) 89 % of control
